This passage reports concentration results from US20110123651A1, “DIETARY SUPPLEMENT DRINK FOR DELIVERY OF RESVERATROL AND OTHER POLYPHENOLS” (priority 2009, published 2011).

The nature of this series: Buccal delivery of resveratrol in humans: free resveratrol in plasma. Format: in vivo. Conditions: human, 1 mg resveratrol in 50 mL solution retained in the mouth for one minute before swallowing, plasma two minutes later, read-out: free resveratrol measured in plasma. The procedure: One efficient way of administering resveratrol in humans may be buccal delivery, that is without immediate swallowing, by direct absorption through the inside of the mouth. As an example, when one mg of resveratrol in 50 mL solution was retained in the mouth for one minute before swallowing, 37 ng/ml of free resveratrol was measured in plasma two minutes later. This level of unchanged resveratrol in blood can only be achieved with 250 mg of resveratrol taken in pill form.

For the compound `Oc1ccc(C=Cc2cc(O)cc(O)c2)cc1` [resveratrol], the concentration at 2 min came out at 37 ng/mL.
